*1 amine or outer side, *2 acyl side, *3 side chain or, on linkers, in order; H or OH if unused. Where a SMILES comes first, the peptide text is derived from it. Bridges are numbered along the chain shown (N, C = ends). [ ]: non-standard residue; d: D form. The star is where a group is joined. X1 = O=C(CC1(S[*:2])CCCCC1)[*:1]; For = O=C*
What follows are compounds tested against vasopressin receptors [V2 -receptors] (Sus scrofa, UniProt P32307) (assay: biochemical).
Source text: Details of the in vitro protocols are in F. L. Stassen et al., J. of Pharm. Exp. Ther. 233, 50-54 (1982) but the calculations of cyclase activity and binding potential at the receptor site are as follows:
Test Procedure for Binding Assay:
These values represent total and non-specific binding, respectively.

vasopressin receptors [V2 -receptors], sequence (P32307 whole entry): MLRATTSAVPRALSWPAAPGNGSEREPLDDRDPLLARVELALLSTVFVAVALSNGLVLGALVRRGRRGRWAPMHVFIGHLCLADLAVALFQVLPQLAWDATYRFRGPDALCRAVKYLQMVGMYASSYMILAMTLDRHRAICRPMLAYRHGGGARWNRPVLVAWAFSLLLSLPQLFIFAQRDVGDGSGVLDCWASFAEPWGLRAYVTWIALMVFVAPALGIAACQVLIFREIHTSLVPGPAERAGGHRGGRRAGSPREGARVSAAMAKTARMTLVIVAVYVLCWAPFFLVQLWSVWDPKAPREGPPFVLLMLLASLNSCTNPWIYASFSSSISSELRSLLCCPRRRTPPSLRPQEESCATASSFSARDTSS

SMILES	Kb
CC(C)[C@@H]1NC(=O)[C@H](Cc2ccccc2)NC(=O)[C@H](Cc2cn(C=O)c3ccccc23)NC(=O)CC2(CCCCC2)SSC[C@@H](C(=O)N2CCC[C@H]2C(=O)N[C@@H](CCCNC(=N)N)C(=O)NCC(N)=O)NC(=O)[C@H](CC(N)=O)NC1=O [L-Trp (For)] (W(For)FVNCPRG-NH2; linker N-5 via X1)	0.84 µM
CC(C)[C@@H]1NC(=O)[C@H](Cc2ccccc2)NC(=O)[C@H](Cc2c[nH]c3ccccc23)NC(=O)CC2(CCCCC2)SSC[C@@H](C(=O)N2CCC[C@H]2C(=O)N[C@@H](CCCNC(=N)N)C(=O)NCC(N)=O)NC(=O)[C@H](CC(N)=O)NC1=O [L-Trp] (WFVNCPRG-NH2; linker N-5 via X1)	2.1 µM
CC(C)[C@@H]1NC(=O)[C@H](Cc2ccccc2)NC(=O)[C@@H](Cc2cn(C=O)c3ccccc23)NC(=O)CC2(CCCCC2)SSC[C@@H](C(=O)N2CCC[C@H]2C(=O)N[C@@H](CCCNC(=N)N)C(=O)NCC(N)=O)NC(=O)[C@H](CC(N)=O)NC1=O [D-Trp (For), [1-(β-mercapto-β,β-cyclopentamethylenepropionic acid)-2-D-tryptophan-(N-formyl)-4-valine-8-arginine]vasopressin] ([dW](For)FVNCPRG-NH2; linker N-5 via X1)	0.078 µM

— US4597901A, “β-indolylalanyl or β-indolylglycinyl vasopressin antagonists” (SmithKline Beckman Corporation, priority 1984, dated 1986)
